“And” between values parts separate entries of the source, which are not always exact repeats. Equal entries are not always repeated. Inconclusive results and toxic doses are left out.
System: L1210 leukemia ip in BDF1 mice, survival T/C
Assay: NCI In Vivo Anticancer Drug Screen. Data for tumor model L1210 Leukemia (intraperitoneal) in B6D2F1 (BDF1) mice
Conditions: endpoint: mean survival time, higher = longer survival
Method in brief: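 Read-out is survival time, reported as the treated-group measurement over the vehicle-control measurement.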

COC12C(COC(N)=O)C3=C(C(=O)C(C)=C(N)C3=O)N1CC1C2N1C (stereo not given)
T/C (dose: 15.0 mg/kg/injection, schedule: Q01DX001 (ip), vehicle: saline): 123 % of control
T/C (dose: 15.0 mg/kg/injection, schedule: Q## X003 (ip), vehicle: saline): 162 % of control
T/C (dose: 15.0 mg/kg/injection, schedule: Q## X004 (ip), vehicle: saline): 150 % of control
T/C (dose: 16.0 mg/kg/injection, schedule: Q02DX008 (ip), vehicle: saline): 158 % of control
T/C (dose: 16.0 mg/kg/injection, schedule: Q## X008 (ip), vehicle: saline): 112 % of control
T/C (dose: 16.0 mg/kg/injection, schedule: Q## X016 (ip), vehicle: saline): 115 % of control
T/C (dose: 16.0 mg/kg/injection, schedule: Q## X040 (ip), vehicle: saline): 167 % of control
T/C (dose: 20.0 mg/kg/injection, schedule: Q01DX001 (ip), vehicle: carboxymethylcellulose (CMC)): 165 % of control
T/C (dose: 20.0 mg/kg/injection, schedule: Q01DX001 (sc), vehicle: saline): 109 % of control
T/C (dose: 20.0 mg/kg/injection, schedule: Q## X003 (ip), vehicle: saline): 192 % of control
T/C (dose: 20.0 mg/kg/injection, schedule: Q## X032 (ip), vehicle: saline): 124 % of control
T/C (dose: 22.5 mg/kg/injection, schedule: Q## X004 (ip), vehicle: saline): 167 % of control
T/C (dose: 24.0 mg/kg/injection, schedule: Q01DX001 (ip), vehicle: saline): 154 % of control
T/C (dose: 26.0 mg/kg/injection, schedule: Q01DX001 (ip), vehicle: carboxymethylcellulose (CMC)): 151 % of control
T/C (dose: 27.0 mg/kg/injection, schedule: Q01DX001 (oral), vehicle: saline): 116 % of control
T/C (dose: 30.0 mg/kg/injection, schedule: Q01DX001 (ip), vehicle: carboxymethylcellulose (CMC)): 157 % of control
T/C (dose: 30.0 mg/kg/injection, schedule: Q01DX001 (ip), vehicle: saline): 150 % of control and 162 % of control
T/C (dose: 30.0 mg/kg/injection, schedule: Q01DX001 (sc), vehicle: saline): 121 % of control
T/C (dose: 30.0 mg/kg/injection, schedule: Q01DX Z (ip), vehicle: carboxymethylcellulose (CMC)): 95 % of control
T/C (dose: 30.0 mg/kg/injection, schedule: Q## X003 (ip), vehicle: saline): 182 % of control
T/C (dose: 32.0 mg/kg/injection, schedule: Q02DX008 (ip), vehicle: saline): 111 % of control
T/C (dose: 32.0 mg/kg/injection, schedule: Q## X008 (ip), vehicle: saline): 185 % of control
T/C (dose: 32.0 mg/kg/injection, schedule: Q## X016 (ip), vehicle: saline): 151 % of control
T/C (dose: 32.0 mg/kg/injection, schedule: Q## X032 (ip), vehicle: saline): 168 % of control and 169 % of control
T/C (dose: 36.0 mg/kg/injection, schedule: Q01DX009 (oral), vehicle: saline): 106 % of control
T/C (dose: 40.0 mg/kg/injection, schedule: Q01DX001 (oral), vehicle: saline): 118 % of control
T/C (dose: 40.0 mg/kg/injection, schedule: Q## X032 (ip), vehicle: saline): 166 % of control
T/C (dose: 45.0 mg/kg/injection, schedule: Q01DX001 (ip), vehicle: carboxymethylcellulose (CMC)): 157 % of control
T/C (dose: 48.0 mg/kg/injection, schedule: Q01DX009 (oral), vehicle: saline): 90 % of control
T/C (dose: 48.0 mg/kg/injection, schedule: Q## X008 (ip), vehicle: saline): 191 % of control
T/C (dose: 60.0 mg/kg/injection, schedule: Q01DX001 (oral), vehicle: saline): 124 % of control
T/C (dose: 64.0 mg/kg/injection, schedule: Q## X008 (ip), vehicle: saline): 204 % of control and 229 % of control
T/C (dose: 64.0 mg/kg/injection, schedule: Q## X024 (ip), vehicle: saline): 88 % of control
T/C (dose: 90.0 mg/kg/injection, schedule: Q01DX001 (oral), vehicle: saline): 124 % of control
T/C (dose: 90.0 mg/kg/injection, schedule: Q01DX001 (sc), vehicle: saline): 118 % of control
T/C (dose: 96.0 mg/kg/injection, schedule: Q## X008 (ip), vehicle: saline): 114 % of control
T/C (dose: 100.0 mg/kg/injection, schedule: Q01DX001 (ip), vehicle: saline): 117 % of control
T/C (dose: 120.0 mg/kg/injection, schedule: Q01DX001 (ip), vehicle: saline): 113 % of control and 87 % of control
T/C (dose: 180.0 mg/kg/injection, schedule: Q01DX001 (oral), vehicle: saline): 101 % of control
T/C (dose: 360.0 mg/kg/injection, schedule: Q01DX001 (oral), vehicle: saline): 92 % of control
